Source: patent publication US6383527B1, “Compositions comprising valerian extracts, isovaleric acid or derivatives thereof with a NSAID” (NPS Pharmaceuticals, Inc., priority 2001, dated 2002)

Tests used:
CNS = details: in vivo; cited from earlier work
[1] = system: recurrent excessive lower back pain; assay: Case report Example 1: valerian preparation and ibuprofen for recurrent, excessive lower back pain; type: in vivo, human; details: person; preparation taken by itself
From the text: These examples are provided for purposes of illustration and are not intended to be limiting of the invention. A person was complaining of recurrent excessive lower back pain from prior injuries. During a bout of lower back pain, they stated that […] could not sleep or sit comfortably and was in duress from the constant pain. […] It was stated that the ibuprofen would provide a decrease in inflammation and some analgesic therapy whereas the addition of the valerian and hops extract could provide a decrease in the muscle tone and analgesia as well, thereby allowing for relief from the pain. […] Their spouse stated that […] “acted like a new […]” because they were not grimacing and stooped from pain.

[2] = acid- and heat-labile; release two moles of isovaleric acid per mole; cited from earlier work
[3] = system: excessive lower back pain; assay: Case report Example 2: valerian preparation and ibuprofen for acute muscle strain from overexertion; type: in vivo, human; details: person; ibuprofen taken alone
From the text: These examples are provided for purposes of illustration and are not intended to be limiting of the invention. A person, complained of excessive lower back pain that interfered with sleeping and the general activities of daily living such as sitting or standing. They had injured their back while shoveling deep snow from their driveway and sidewalk. They had been taking ibuprofen but experiencing little relief. […] They continued to take the combination until their back healed and no longer gave their pain without medication.

[4] = clinical; cited from earlier work
[5] = cited from earlier work

In the case of `CCN(CC)C(=O)CC(C)C` [N,N-Diethyl isovaleramide], the CNS properties (CNS) is given as “CNS stimulant (convulsant) properties”.
In the case of `CC(=O)Nc1ccc(O)cc1` [acetaminophen], the “relief from lower back pain” value [1] is reported as “without any useful sense of relief”.
With `CC(=O)Oc1ccccc1C(=O)O` [aspirin] the “relief from lower back pain” value [1] was “without any useful sense of relief”.
For `CC(=O)O[C@H]1C[C@@H]2C(COC(=O)CC(C)C)=CO[C@@H](OC(=O)CC(C)C)[C@@H]2[C@@]12CO2` [didrovaltrate], the “survival in the stomach following oral administration” value [2] is listed as “do not survive intact”.
For `CC(C)Cc1ccc(C(C)C(=O)O)cc1` (stereo not drawn) [ibuprofen], the “relief from lower back pain” value [1] was “without any useful sense of relief” and the “relief from lower back pain” value [3] was “little relief”.
For `CC(C)CC(N)=O` [isovaleramide], the anxiolytic properties [4] is given as “clinically useful anxiolytic properties” and the “acute toxicity in vivo” value [5] is given as “low acute toxicity”.
For `CC(=O)OCC1=CO[C@@H](OC(=O)CC(C)C)[C@H]2C1=C[C@H](OC(=O)CC(C)C)[C@]21CO1` [valtrate], the “survival in the stomach following oral administration” value [2] is given as “do not survive intact”.
